We go through 15 compounds from publication PMC10303846, “In vitro antiplasmodial activity and toxicological profile of extracts, fractions and chemical constituents of leaves and stem bark from Dacryodes edulis (Burseraceae)” (BMC Complementary Medicine and Therapies, 2023).

Series [1] has as its system chloroquine-resistant (multidrug-resistant) PfDd2 (MRA-150) P. falciparum strain. As to the kind of experiment: SYBR green I-based fluorescence P. falciparum growth inhibition assay, PfDd2. In kind it is cell-based, Plasmodium falciparum. The settings on record: for IC50: Plasmodium falciparum, read-out: IC50 ± SD PfDd2; for antiplasmodial activity class on PfDd2: class by IC50 criteria of b51, Dd2 strain only. The method, then:
(§1) The chloroquine-sensitive Pf3D7-(MRA-102) and chloroquine-resistant PfDd2-(MRA-150) P. falciparum strains were maintained as previously described in fresh O^+ human red blood cells at 4% haematocrit in complete RPMI 1640 medium [500 mL RPMI 1640 (Gibco, UK) supplemented with 25 mM HEPES (Gibco, UK), […] (Gibco, USA), 1X hypoxanthine (Gibco, USA) and […] gentamicin (Gibco, China)] and incubating at 37 °C in a humidified atmosphere with 5% CO2. The medium was renewed daily to propagate the culture. Giemsa-stained thin blood smears were examined microscopically under immersion oil to monitor cell-cycle transition and parasitemia evolution. O^+ human red blood cells were obtained from a consent volunteer donor (Supplementary material).
(§2) Before each experiment, synchronized ring-stage parasite were obtained by 5% sorbitol (w/v) treatment with respect to Lambros and Vanderberg, 1979 [12]. It is crucial to note that, using cultures over mixed stage cultures can enable the test molecules to interact with all three stages (ring, trophozoite, and schizont) of the 48 h long life cycle of P. falciparum in culture.
(§3) A drug sensitivity assay was carried out in 96-well microtitration plates using a SYBR green I-based fluorescence assay. This assay is specifically based on the ability of SYBR green to give strong fluorescence only in the presence of parasite DNA during cell proliferation.
(§4) Shortly, sorbitol-synchronized ring stage parasites (hematocrit: 1%, parasitemia: 2%, 90 μl) under normal culture conditions were incubated in the presence of prediluted extracts, fractions, isolated compounds and reference drug (10 μL) followed by incubation at 37℃ for 72 h. After incubation, 100 μL of SYBR Green I buffer [6 μL of 10,000 × SYBR Green I (Invitrogen) + 600 μL of Red Blood Cells lysis buffer {Tris (25 mM; pH 7.5)} + 360 μL of EDTA (7.5 mM) + 19,2 μL of parasites lysis solution {saponin (0.012%; wt/vol)} and 28,8 μL of Triton X-100 (0.08%; vol/vol)}] was added to each well, mixed twice gently with a multichannel pipette and incubated in the dark at 37℃ for 1 h. Fluorescence was measured using a TECAN M 200 Microplate reader with excitation and emission at 485 and 538 nm, respectively. The fluorescence counts were plotted against the logarithm of the sample concentration and the 50% inhibitory concentration (IC50) was determined by analysis of dose–response curves using GraphPad Prism 5.0. Experiments were performed in duplicate.

For series [2], the system named is chloroquine-sensitive Pf3D7 (MRA-102) P. falciparum strain. As to the kind of experiment: SYBR green I-based fluorescence P. falciparum growth inhibition assay, Pf3D7. It counts as cell-based. The settings on record: Plasmodium falciparum, read-out: IC50 ± SD Pf3D7. The method, then: as §1, §2, §3, §4
Series [3] in a line: Resazurin-based in vitro cytotoxicity assay. In kind it is cell-based. Particulars: mouse. The method, then: The cytotoxicity profile of extracts, fractions and isolated compounds was assessed using the resazurin-based assay essentially as previously described against RAW 264.7 cells duly cultivated in complete Dulbecco′s Modified Eagle′s Medium (DMEM) that contain 13.5 g/L of DMEM (Sigma Aldrich), 10% fetal bovine serum (Sigma Aldrich), 0.2% sodium bicarbonate (w/v) (Sigma Aldrich) and 50 μg/mL of gentamicin (Sigma Aldrich). Globally, macrophages (Raw cells) were seeded into 96-well cell-culture flat-bottomed plates at a density of 10^4 cells in 100 μL of complete medium/well and placed in incubation for 24 h at 37℃, and 5% CO2 allowing cell adhesion. Following cell adhesion, ten microliters of each serially diluted test sample solution was added to assay plates and left in incubation for 48 h under the same experimental conditions. Growth control (1% DMSO-100% growth) and positive control wells (podophyllotoxin at 20 μM) were included in the experimental plates. Cell proliferation was checked by adding 10 μL of a stock solution of resazurin (0.15 mg/mL in sterile PBS) to each well followed by an additional incubation of 4 h in the same culture conditions. Fluorescence was then read using Tecan Infinite M200 fluorescence multiwell plate reader (Tecan) at an excitation/emission of 530/590 nm. The results were expressed as 50% cytotoxic concentrations (CC50) and selectivity indices (CC50 Mammalian cell/IC50 Pf3D7) were calculated for each test substance.
(The colour change of resazurin is a common sign of viable cells or microbes.)

Series [4] relates to P. falciparum 3D7 and Dd2 strains. Briefly: SYBR green antiplasmodial assay, results stated for both strains together. It counts as cell-based, Plasmodium falciparum. Particulars: for Resistance Index (RI): PfDd2 versus Pf3D7; for antiplasmodial activity class on both Pf3D7 and PfDd2: class by IC50 criteria of b51.
Description: The medium was renewed daily to propagate the culture. Giemsa-stained thin blood smears were examined microscopically under immersion oil to monitor cell-cycle transition and parasitemia evolution. O^+ human red blood cells were obtained from a consent volunteer donor (Supplementary material).
as §2, §3, §4

Series [5] has as its system chloroquine-resistant (Dd2) strain of P. falciparum. Particulars: Zofou and colleagues (2013) ref 9; cited from earlier work.
Setting [6] is: SYBr Green based assay, 72 h, multidrug-resistant strain.
Setting [7] is: SYBr Green based assay, 72 h, chloroquine-sensitive strain.
[8] abbreviates: reference drugs, unit nM printed with the name.
Setting [9] is: Raw cells, 48 h, resazurin, read-out: CC50.

The term IC50 denotes the concentration that gives 50% inhibition. The CC50 is the concentration that lowers cell viability or growth by half.

Converted amounts (≈) assume the structure as drawn. Where two headings read alike, the source gives them in different places.

As to `CC(=O)O[C@H]1CC[C@]2(C)[C@H]3CC=C4[C@@H]5CC(C)(C)CC[C@]5(C)CC[C@@]4(C)[C@]3(C)CC[C@H]2C1(C)C` [compound 11, β-amyrin acetate], the IC50 in series [1] (setting [6]) and in series [2] (setting [7]) was over 25 µg/mL in each case. Moreover, the CC50 at 48 h in series [3] was over 100 µg/mL.
In the case of `CCN(CC)CCCC(C)Nc1ccnc2cc(Cl)ccc12` (centres unmarked) [Chloroquine, reference compound], the IC50 stood at 133 ± 0.16 nM in series [1] and 4.36 ± 0.53 nM in series [2].
As for `C[C@@H]1CC[C@H]2[C@@H](C)C(=O)O[C@@H]3O[C@@]4(C)CC[C@@H]1[C@]32OO4` [Artemisinin, reference compound], the results for the IC50 in series [1] (setting [8]) and in series [2] (setting [8]) were 18.9 ± 0.13 nM and 14.66 ± 0.11 nM, respectively.
In the case of `O=C(O)c1ccc(O)c(O)c1` [compound 6, 3,4-dihydroxybenzoic acid], the IC50 in series [1] (72 h) was 17.09 ± 0.06 µg/mL; in series [2] (72 h) it was over 25 µg/mL. Moreover, in series [1], the “antiplasmodial activity class on PfDd2” value was “moderate (10 < IC50 ≤ 20 μg/mL: moderate activity)”. Further, in series [3] (setting [9]), the CC50 at 48 h was over 100 µg/mL.
As for `C/C(=C/CCC(C)C1CCC2(C)C3=CCC4C(C)(C)C(=O)CCC4(C)C3CCC12C)C(=O)O` (centres unmarked) [compound 13, 3-oxo-lanosta-7,24-Z-dien-26-oid acid], the IC50 in series [1] (setting [6]) is 14.21 ± 0.11 µg/mL; in series [2] (setting [7]), over 25 µg/mL. In addition, the “antiplasmodial activity class on PfDd2” value in series [1] is “moderate (10 < IC50 ≤ 20 μg/mL: moderate activity)”. For the same compound, in series [3] (RAW 264.7 macrophage cells, Raw cells, 48 h, resazurin, read-out: CC50), the CC50 at 48 h is over 100 µg/mL.
For the compound `COc1c(O)cc2c(=O)oc3c(OC)c(OC4OCC(O)C(OC(=O)c5cc(O)c(O)c(O)c5)C4O)cc4c(=O)oc1c2c34` [compound 5, 3,3″-di-O-methylellagic acid 4-O-(3″-galloyl)-β-D-xylopyranoside], the IC50 turned out to be 1.76 ± 0.14 µg/mL in series [1] (setting [6]) and 1.86 ± 0.18 µg/mL in series [2] (setting [7]). This compound also had a CC50 at 48 h in series [3] of over 100 µg/mL. Moreover, the “Resistance Index (RI)” value in series [4] stood at 1.12.
On to `CCCCCC(=O)Cc1cc(OC)cc(O)c1C(=O)Oc1cc(CCCCC)c(C(=O)O)c(OC)c1` [compound 7, Confluentic acid], for which the IC50 in series [1] (setting [6]) and in series [2] (setting [7]) was over 25 µg/mL in each case. Moreover, the CC50 at 48 h in series [3] is over 100 µg/mL.
For the compound `COc1cc2c(=O)oc3c(OC)c(O)cc4c(=O)oc(c1OC)c2c34` [compound 4, 3,3′,4-tri-O-methylellagic acid], the figures for the IC50 in series [1] (setting [6]) and in series [2] (setting [7]) were 0.63 ± 0.27 µg/mL and over 25 µg/mL, respectively. In series [3], the CC50 at 48 h was over 100 µg/mL.
Regarding `COC(=O)c1cc(O)c(O)c(O)c1` [DES4, methyl 3,4,5-trihydroxybenzoate], the “IC50 Dd2” value in series [5] was 0.56 µg/mL (≈ 3.04 µM).
As to `COc1c(O)cc2c(=O)oc3c(OC)c(O)cc4c(=O)oc1c2c34` [compound 3, 3,3′-O-dimethylellagic acid], the IC50 in series [1] (setting [6]) was found to be 1.36 ± 0.14 µg/mL; in series [2] (setting [7]), 1.17 ± 0.04 µg/mL. In addition, the CC50 at 48 h in series [3] is over 100 µg/mL. The “Resistance Index (RI)” value in series [4] was 1.16. In addition, the “antiplasmodial activity class on both Pf3D7 and PfDd2” value in series [4] is recorded as “pronounced (IC50 ≤ 5 μg/mL: pronounced activity)”.
Take `CC(=O)OCC(Cc1ccccc1)NC(=O)C(Cc1ccccc1)NC(=O)c1ccccc1` (centres unmarked) [compound 9, Auranthiamide acetate]: the IC50 in series [1] (setting [6]) and in series [2] (setting [7]) was over 25 µg/mL each time. In addition, the CC50 at 48 h in series [3] was over 100 µg/mL.
Take `CCCCCCCCCCCCCCCCCCCCCCCC(=O)OCC(O)CO` (centres unmarked) [compound 8, Glyceryl-1-tetracosanoate]: the IC50 in series [1] (setting [6]) and in series [2] (setting [7]) was over 25 µg/mL throughout. For the same compound, the CC50 at 48 h in series [3] is over 100 µg/mL.
Regarding `CC1(C)CC[C@]2(C)CC[C@]3(C)C(=CC[C@@H]4[C@@]5(C)CC[C@H](O)C(C)(C)[C@@H]5CC[C@]43C)[C@@H]2C1` [compound 12, β-amyrin], the IC50 in series [1] (setting [6]) and in series [2] (setting [7]) was over 25 µg/mL each time.
`COc1cc(O)c2c(=O)c3c(C)cc(O)cc3oc2c1` [compound 2, Griseoxanthone C]: the IC50 in series [1] (72 h) and in series [2] (72 h) was over 25 µg/mL throughout. In series [3] (setting [9]), the CC50 at 48 h is over 100 µg/mL.
As for `CCOC(=O)c1cc(O)c(O)c(O)c1` [compound 10, Ethyl gallate], the IC50 in series [1] (setting [6]) was 2.86 ± 0.07 µg/mL; in series [2] (setting [7]) it was 1.15 ± 0.1 µg/mL. This compound came in with a CC50 at 48 h in series [3] of over 100 µg/mL. Besides, the “Resistance Index (RI)” value in series [4] is 2.48. For the same compound, in series [4], the “antiplasmodial activity class on both Pf3D7 and PfDd2” value is on record as “pronounced (IC50 ≤ 5 μg/mL: pronounced activity)”.
